Data: patent publication US20230390214A1, “ADHESIVE PATCH” (TOYO INK SC HOLDINGS CO., LTD., priority 2020, published 2023)

test: Solubility of the drug in levulinic acid at 35° C. (visual observation); format: physicochemical; settings: in 1 mL of levulinic acid at a liquid temperature of 35° C.
Experimental: The adhesive layer includes a drug. A drug that can be dissolved in levulinic acid is preferable. For example, it is preferable that 0.1 g or more of the drug can be dissolved in 1 mL of levulinic acid at a liquid temperature of 35° C.
Specifically, the solubility of the drug is determined as follows. One mL of levulinic acid is put into a test tube and kept at 35° C. to obtain liquid levulinic acid. To the liquid levulinic acid, 0.1 g of the drug is added to obtain a mixed liquid. While keeping the mixed liquid at 35° C., the mixed liquid in the test tube is vibrated for 10 minutes using an ultrasonic cleaner (e.g., a glasses cleaner). After removing the test tube from the ultrasonic cleaner and leaving it in an environment of 35° C. for 4 hours, the mixed liquid in the test tube is visually observed to check for the presence of residues or precipitates of the drug. In a case where no drug residues or precipitates are observed in the mixed liquid, it is determined that 0.1 g or more of the drug can be dissolved in 1 mL of levulinic acid at a liquid temperature of 35° C. Furthermore, in a case where drug residues or precipitates are observed in the mixed liquid, it is determined that 0.1 g or more of the drug cannot be dissolved in 1 mL of levulinic acid at a liquid temperature of 35° C.

Amount of drug that can be dissolved in 1 mL of levulinic acid, ≥ 0.1 g:
N=C(N)NC(=O)Cc1c(Cl)cccc1Cl [guanfacine]
CCN1CCN(c2cc(-c3ccc(F)cc3)c3c(n2)CCCCCC3)CC1 [blonanserin]
CCCN(CCc1cccs1)[C@H]1CCc2c(O)cccc2C1 [rotigotine]
